Measured values as given in paper PMC11432330, “Novel Drug-like HsrA Inhibitors Exhibit Potent Narrow-Spectrum Antimicrobial Activities against Helicobacter pylori” (International Journal of Molecular Sciences, 2024).

How the values were obtained:
[1] = target: T1, C. jejuni response regulator CosR (Campylobacter jejuni, UniProt Q0PBF4); experiment: EMSA: inhibition of in vitro DNA binding activity of CosR to promoter PsodB; format: biochemical; conditions: 700 nM CosR, ligand 0.1-2 mM
Protocol: The DNA binding activities of recombinant HsrA and CosR were assessed in vitro by electrophoretic mobility shift assays (EMSAs). A 300-bp promoter region of the H. pylori 26695 operon porGDAB was used as the target sequence of HsrA in all EMSA experiments. Likewise, a 420-bp sequence of the C. jejuni sodB promoter (ATCC 33560) was used as the target DNA of CosR [90]. The oligonucleotides used for the synthesis of these promoter regions are described in Supplementary Table S4. Response regulators HsrA (6 μM) or CosR (700 nM) were mixed with 120 ng of their target promoters in a reaction buffer of 10 mM bis-Tris (pH 7.5), 40 mM KCl, 100 mg/L BSA, 1 mM DTT, and 5% glycerol. For the in vitro inhibition analyses, mixtures of target DNA and response regulator were exposed to 2, 1, 0.5, and 0.1 mM of each compound of interest, incubated at room temperature for 20 min, and then separated on a 6% non-denaturing electrophoresis. DMSO instead of inhibitors was included as a vehicle control, while an internal sequence of the Anabaena sp. pkn22 gene was used as the non-specific competitor in all assays. For DNA-protein binding visualization, gels were stained with the SYBR Safe DNA gel stain (Invitrogen) and analyzed with a Gel Doc 2000 Image Analyzer (Bio-Rad).

[2] = target: T1, C. jejuni response regulator CosR; experiment: Isothermal titration calorimetry (ITC) with CosR; format: binding
Protocol: Molecular interactions of the selected ligands with proteins HsrA or CosR were studied by isothermal titration calorimetry (ITC), as previously described. Titrations were assessed in a high-sensitivity MicroCal Auto-iTC200 calorimeter (Malvern Panalytical, Malvern, UK). Experiments were carried out at 25 °C in freshly prepared buffer containing 50 mM Tris-HCl [pH 8], 150 mM NaCl, 10% glycerol, and 1% DMSO. A 20 µM solution of protein was located in the calorimetric cell. Then, a sequence of 19 injections of 2 µL volume each with a 200 µM solution of the corresponding ligand was programmed with a time spacing of 150 s, a stirring speed of 750 rpm, and a reference power of 10 µcal/s in the sample cell. Thermodynamic properties such as binding stoichiometry, dissociation constants, and binding enthalpies were calculated by nonlinear least-squares regression data analysis using Origin 7.0 software.

T1 sequence (Q0PBF4 entry or part of it): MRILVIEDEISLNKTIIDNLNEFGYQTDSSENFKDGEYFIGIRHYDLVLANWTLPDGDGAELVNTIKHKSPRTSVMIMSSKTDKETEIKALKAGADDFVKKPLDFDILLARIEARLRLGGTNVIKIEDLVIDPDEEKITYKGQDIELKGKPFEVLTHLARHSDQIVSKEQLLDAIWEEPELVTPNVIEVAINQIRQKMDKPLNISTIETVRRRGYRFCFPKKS

For NC(=NOC(=O)Nc1ccc(Cl)cc1)c1csc([N+](=O)[O-])c1 [Ligand V, N′-{[(4-chloroanilino)carbonyl]}oxy-5-nitrothiophene-3-carboximidamide], the “Inhibition of in vitro DNA binding activity of CosR (EMSA)” value [1] was “noticeable inhibition”, the ΔG ([2]; absolute error 0.1) was -6.2 kcal/mol and the ΔH ([2]; absolute error 0.4) was -0.9 kcal/mol. The Kd ([2]; relative error 15%) was 26 µM.
